# Measured values: patent publication US5571836A, “Viral attachment inhibitors” (priority 1995, dated 1996)
# Counter-ions that a name gives are not always drawn.
# Tests used:
# [1] = tested on: influenza virus USSR/90/77; assay: Fetuin binding inhibition assay, influenza virus USSR/90/77; settings: for A^i (absorbance): 492 nm
# [2] = tested on: influenza virus Chile/1/83; assay: Fetuin binding inhibition assay, influenza virus Chile/1/83; settings: for A^i (absorbance): 492 nm
# [3] = tested on: influenza virus Taiwan/1/86; assay: Fetuin binding inhibition assay, influenza virus Taiwan/1/86; settings: for A^i (absorbance): 492 nm
# [4] = tested on: influenza virus X-31; assay: Fetuin binding inhibition assay, influenza virus X-31; settings: for A^i (absorbance): 492 nm
# [5] = tested on: influenza virus England/321/77; assay: Fetuin binding inhibition assay, influenza virus England/321/77; settings: for A^i (absorbance): 492 nm
# [6] = tested on: influenza virus USSR/2/85; assay: Fetuin binding inhibition assay, influenza virus USSR/2/85; settings: for A^i (absorbance): 492 nm
# [7] = tested on: influenza virus USSR/3/85; assay: Fetuin binding inhibition assay, influenza virus USSR/3/85; settings: for A^i (absorbance): 492 nm
# [8] = tested on: influenza virus B/Hong Kong/8/73; assay: Fetuin binding inhibition assay, influenza virus B/Hong Kong/8/73; settings: for A^i (absorbance): 492 nm
# [9] = tested on: influenza virus B/Singapore/222/79; assay: Fetuin binding inhibition assay, influenza virus B/Singapore/222/79; settings: for A^i (absorbance): 492 nm
# [10] = tested on: influenza virus B/USSR/100/83; assay: Fetuin binding inhibition assay, influenza virus B/USSR/100/83; settings: for A^i (absorbance): 492 nm
# [11] = tested on: influenza virus Port Chalmers/1/73; assay: Fetuin binding inhibition assay, influenza virus Port Chalmers/1/73; settings: for A^i (absorbance): 492 nm
# [12] = tested on: influenza virus Victoria/3/75; assay: Fetuin binding inhibition assay, influenza virus Victoria/3/75; settings: for A^i (absorbance): 492 nm
# [13] = tested on: influenza virus Texas/1/77; assay: Fetuin binding inhibition assay, influenza virus Texas/1/77; settings: for A^i (absorbance): 492 nm
# [14] = tested on: influenza virus Philippines/2/82; assay: Fetuin binding inhibition assay, influenza virus Philippines/2/82; settings: for A^i (absorbance): 492 nm
# [15] = target: Vibrio cholerae neuraminidase (Vibrio cholerae, UniProt P0C6E9); assay: Neuraminidase cleavage (resistance), TLC analysis; type: biochemical; settings: 37° C., 450 U/ml, pH 5.6; compared with compound (IV)
# Method: (§1) Compound (IV) was incubated at 37° C. with Vibrio cholerae neuraminidase (450 U/ml) in 0.1M acetate buffer, pH 5.6, containing 0.9% NaCi and 0.1% CaCl2. Neuraminidase cleavage was determined on aliquots taken at intervals by TLC analysis (Merck silica gel plates in propanol/ethanol/25% aqueous ammonia, 2:2:1). Spots were developed by charring the plates with 3% H3 PO4 at 150° C. and quantitated densitometrically. The results are depicted in The FIGURE (v).
# [16] = type: physicochemical; settings: control solutions without enzyme
# Method: as §1
# [17] = tested on: influenza virus hemagglutinin; settings: prior art; cited from earlier work
# [18] = tested on: neuraminidase; settings: prior art; cited from earlier work
# [19] = Stability of compound (observation); type: physicochemical; settings: must be used immediately in coupling with polymer
# Chain of Vibrio cholerae neuraminidase (P0C6E9 25-781): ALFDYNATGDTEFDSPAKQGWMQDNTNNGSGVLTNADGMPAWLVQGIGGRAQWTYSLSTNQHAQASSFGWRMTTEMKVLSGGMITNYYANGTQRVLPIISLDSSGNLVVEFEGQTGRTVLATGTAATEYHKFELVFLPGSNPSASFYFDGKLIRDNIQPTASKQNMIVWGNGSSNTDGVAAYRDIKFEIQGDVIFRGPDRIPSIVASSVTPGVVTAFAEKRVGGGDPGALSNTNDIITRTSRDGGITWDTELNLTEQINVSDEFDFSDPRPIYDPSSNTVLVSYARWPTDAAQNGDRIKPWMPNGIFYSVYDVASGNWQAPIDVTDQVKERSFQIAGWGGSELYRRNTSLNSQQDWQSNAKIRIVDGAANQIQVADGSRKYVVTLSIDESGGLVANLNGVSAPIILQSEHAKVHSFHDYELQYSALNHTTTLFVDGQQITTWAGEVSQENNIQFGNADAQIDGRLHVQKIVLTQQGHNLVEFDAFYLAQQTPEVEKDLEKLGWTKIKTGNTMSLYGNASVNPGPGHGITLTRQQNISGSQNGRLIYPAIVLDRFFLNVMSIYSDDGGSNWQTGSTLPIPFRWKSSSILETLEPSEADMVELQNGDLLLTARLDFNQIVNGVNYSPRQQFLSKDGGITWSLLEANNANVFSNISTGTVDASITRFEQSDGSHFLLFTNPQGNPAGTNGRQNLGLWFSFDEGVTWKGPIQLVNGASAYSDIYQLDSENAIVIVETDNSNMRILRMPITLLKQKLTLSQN
smiles,measurement,setting,value
"CC(=O)NC1C(O)CC(OCc2ccccc2)(C(=O)O)OC1C(O)C(O)CO [IX, benzyl 5-acetamido-3,5-dideoxy-α-D-glycero-D-galacto-nonulopyranosidonic acid (sodium salt), reference compound]",-lgKd(i),[1]; 1.28 mM sialoside,2.8
same,A^i (absorbance),[1]; 1.28 mM sialoside,0.6
same,-lgKd(i),[1]; .16 mM sialoside,3.1
same,A^i (absorbance),[1]; .16 mM sialoside,0.8
same,-lgKd(i),[1]; .32 mM sialoside,3.1
same,A^i (absorbance),[1]; .32 mM sialoside,0.7
same,-lgKd ± SD,[1]; mean over concentrations,3.0 ± 0.17
same,-lgKd(i),[2]; 1.28 mM sialoside,3.4
same,A^i (absorbance),[2]; 1.28 mM sialoside,0.42
same,-lgKd(i),[2]; .16 mM sialoside,3.2
same,A^i (absorbance),[2]; .16 mM sialoside,0.9
same,-lgKd(i),[2]; .32 mM sialoside,3.4
same,A^i (absorbance),[2]; .32 mM sialoside,0.72
same,-lgKd(i),[2]; .64 mM sialoside,3.3
same,A^i (absorbance),[2]; .64 mM sialoside,0.62
same,-lgKd ± SD,[2]; mean over concentrations,3.3 ± 0.1
same,-lgKd(i),[3]; 1.28 mM sialoside,3.0
same,A^i (absorbance),[3]; 1.28 mM sialoside,0.22
same,-lgKd(i),[3]; .32 mM sialoside,2.8
same,A^i (absorbance),[3]; .32 mM sialoside,0.36
same,-lgKd(i),[3]; .64 mM sialoside,2.9
same,A^i (absorbance),[3]; .64 mM sialoside,0.31
same,-lgKd ± SD,[3]; mean over concentrations,2.9 ± 0.1
same,-lgKd(i),[4]; 1.28 mM sialoside,2.8
same,A^i (absorbance),[4]; 1.28 mM sialoside,0.66
same,-lgKd(i),[4]; .32 mM sialoside,3.1
same,A^i (absorbance),[4]; .32 mM sialoside,0.86
same,-lgKd(i),[4]; .64 mM sialoside,2.7
same,A^i (absorbance),[4]; .64 mM sialoside,0.84
same,-lgKd ± SD,[4]; mean over concentrations,2.9 ± 0.21
same,-lgKd(i),[5]; .08 mM sialoside,4.4
same,A^i (absorbance),[5]; .08 mM sialoside,0.49
same,-lgKd(i),[5]; .16 mM sialoside,4.6
same,A^i (absorbance),[5]; .16 mM sialoside,0.21
same,-lgKd(i),[5]; .32 mM sialoside,4.5
same,A^i (absorbance),[5]; .32 mM sialoside,0.13
same,-lgKd(i),[5]; .64 mM sialoside,4.8
same,A^i (absorbance),[5]; .64 mM sialoside,0.04
same,-lgKd ± SD,[5]; mean over concentrations,4.5 ± 0.1
same,-lgKd(i),[6]; 1.28 mM sialoside,3.5
same,A^i (absorbance),[6]; 1.28 mM sialoside,0.12
same,-lgKd(i),[6]; .32 mM sialoside,3.1
same,A^i (absorbance),[6]; .32 mM sialoside,0.32
same,-lgKd(i),[6]; .64 mM sialoside,3.3
same,A^i (absorbance),[6]; .64 mM sialoside,0.25
same,-lgKd ± SD,[6]; mean over concentrations,3.3 ± 0.2
same,-lgKd(i),[7]; 1.28 mM sialoside,4.5
same,A^i (absorbance),[7]; 1.28 mM sialoside,0.06
same,-lgKd(i),[7]; .08 mM sialoside,4.5
same,A^i (absorbance),[7]; .08 mM sialoside,0.5
same,-lgKd(i),[7]; .16 mM sialoside,4.6
same,A^i (absorbance),[7]; .16 mM sialoside,0.28
same,-lgKd(i),[7]; .32 mM sialoside,4.6
same,A^i (absorbance),[7]; .32 mM sialoside,0.16
same,-lgKd(i),[7]; .64 mM sialoside,4.6
same,A^i (absorbance),[7]; .64 mM sialoside,0.08
same,-lgKd ± SD,[7]; mean over concentrations,4.6 ± 0.05
same,-lgKd(i),[8]; 1.28 mM sialoside,3.0
same,A^i (absorbance),[8]; 1.28 mM sialoside,0.32
same,-lgKd(i),[8]; .32 mM sialoside,2.7
same,A^i (absorbance),[8]; .32 mM sialoside,0.55
same,-lgKd(i),[8]; .64 mM sialoside,2.8
same,A^i (absorbance),[8]; .64 mM sialoside,0.48
same,-lgKd ± SD,[8]; mean over concentrations,2.8 ± 0.15
same,-lgKd(i),[9]; 1.28 mM sialoside,3.4
same,A^i (absorbance),[9]; 1.28 mM sialoside,0.39
same,-lgKd(i),[9]; .16 mM sialoside,3.4
same,A^i (absorbance),[9]; .16 mM sialoside,0.85
same,-lgKd(i),[9]; .32 mM sialoside,3.3
same,A^i (absorbance),[9]; .32 mM sialoside,0.76
same,-lgKd(i),[9]; .64 mM sialoside,3.2
same,A^i (absorbance),[9]; .64 mM sialoside,0.65
same,-lgKd ± SD,[9]; mean over concentrations,3.3 ± 0.1
same,-lgKd(i),[10]; 1.28 mM sialoside,3.1
same,A^i (absorbance),[10]; 1.28 mM sialoside,0.9
same,-lgKd(i),[10]; .16 mM sialoside,3.6
same,A^i (absorbance),[10]; .16 mM sialoside,1.2
same,-lgKd(i),[10]; .32 mM sialoside,3.6
same,A^i (absorbance),[10]; .32 mM sialoside,1.0
same,-lgKd ± SD,[10]; mean over concentrations,3.4 ± 0.3
same,-lgKd(i),[11]; 1.60 mM sialoside,3.4
same,A^i (absorbance),[11]; 1.60 mM sialoside,0.20
same,-lgKd(i),[11]; .05 mM sialoside,3.7
same,A^i (absorbance),[11]; .05 mM sialoside,0.51
same,-lgKd(i),[11]; .10 mM sialoside,4.1
same,A^i (absorbance),[11]; .10 mM sialoside,0.36
same,-lgKd(i),[11]; .20 mM sialoside,3.8
same,A^i (absorbance),[11]; .20 mM sialoside,0.36
same,-lgKd(i),[11]; .40 mM sialoside,3.6
same,A^i (absorbance),[11]; .40 mM sialoside,0.33
same,-lgKd(i),[11]; .80 mM sialoside,3.5
same,A^i (absorbance),[11]; .80 mM sialoside,0.28
same,-lgKd ± SD,[11]; mean over concentrations,3.7 ± 0.3
same,-lgKd(i),[12]; 1.60 mM sialoside,4.2
same,A^i (absorbance),[12]; 1.60 mM sialoside,0.09
same,-lgKd(i),[12]; .05 mM sialoside,4.0
same,A^i (absorbance),[12]; .05 mM sialoside,0.64
same,-lgKd(i),[12]; .10 mM sialoside,4.0
same,A^i (absorbance),[12]; .10 mM sialoside,0.58
same,-lgKd(i),[12]; .20 mM sialoside,4.05
same,A^i (absorbance),[12]; .20 mM sialoside,0.45
same,-lgKd(i),[12]; .40 mM sialoside,4.1
same,A^i (absorbance),[12]; .40 mM sialoside,0.31
same,-lgKd(i),[12]; .80 mM sialoside,4.2
same,A^i (absorbance),[12]; .80 mM sialoside,0.16
same,-lgKd ± SD,[12]; mean over concentrations,4.1 ± 0.08
same,-lgKd(i),[13]; 1.60 mM sialoside,5.1
same,A^i (absorbance),[13]; 1.60 mM sialoside,0.04
same,-lgKd(i),[13]; .05 mM sialoside,4.8
same,A^i (absorbance),[13]; .05 mM sialoside,0.77
same,-lgKd(i),[13]; .10 mM sialoside,4.9
same,A^i (absorbance),[13]; .10 mM sialoside,0.55
same,-lgKd(i),[13]; .20 mM sialoside,5.0
same,A^i (absorbance),[13]; .20 mM sialoside,0.30
same,-lgKd(i),[13]; .40 mM sialoside,4.9
same,A^i (absorbance),[13]; .40 mM sialoside,0.20
same,-lgKd(i),[13]; .80 mM sialoside,5.0
same,A^i (absorbance),[13]; .80 mM sialoside,0.09
same,-lgKd ± SD,[13]; mean over concentrations,5.0 ± 0.1
same,-lgKd(i),[14]; .05 mM sialoside,5.2
same,A^i (absorbance),[14]; .05 mM sialoside,0.35
same,-lgKd(i),[14]; .10 mM sialoside,5.3
same,A^i (absorbance),[14]; .10 mM sialoside,0.18
same,-lgKd(i),[14]; .20 mM sialoside,5.4
same,A^i (absorbance),[14]; .20 mM sialoside,0.08
same,-lgKd(i),[14]; .40 mM sialoside,5.4
same,A^i (absorbance),[14]; .40 mM sialoside,0.05
same,-lgKd(i),[14]; .80 mM sialoside,5.3
same,A^i (absorbance),[14]; .80 mM sialoside,0.03
same,-lgKd ± SD,[14]; mean over concentrations,5.3 ± 0.08
same,Neuraminidase cleavage,[15],cleaved much more rapidly
same,Stability in the absence of enzyme,[16],at least 23 hours
same,Inhibition of attachment,[17],shows greater inhibition of attachment than 5-acetyl neuraminic acid itself
same,Susceptibility to neuraminidase cleavage,[18],not immune to this cleavage
"CC(=S)NC1C(O)CC(OCc2ccc(NC(=S)CN)cc2)(C(=O)O)OC1C(O)C(O)CO [VIII, p-thioglycylamidobenzyl 3,5-dideoxy-5-thioacetamido-α-D-glycero-D-galacto-nonulopyranosidonic acid]",Stability,[19],unstable
